According to patent US6432993B1, “Substituted fused heterocyclic compound” (Sankyo Company, Limited, priority 1997, dated 2002):
Converted amounts (≈) assume the structure as drawn. Counter-ions that a name gives are not always drawn.

Experiments:
5-lipoxygenase = target: T1, 5-lipoxygenase (Cavia porcellus, UniProt A0A286X958); test: 5-Lipoxygenase inhibitory action (5-HETE formation, guinea pig polymorphonuclear leukocyte enzyme); format: biochemical; conditions: 25° C. 5 minutes, 5-HETE by HPLC, read-out: IC50 (50% inhibition concentration against 5-lipoxygenase) (converted)
T1 sequence (A0A286X958 1-674): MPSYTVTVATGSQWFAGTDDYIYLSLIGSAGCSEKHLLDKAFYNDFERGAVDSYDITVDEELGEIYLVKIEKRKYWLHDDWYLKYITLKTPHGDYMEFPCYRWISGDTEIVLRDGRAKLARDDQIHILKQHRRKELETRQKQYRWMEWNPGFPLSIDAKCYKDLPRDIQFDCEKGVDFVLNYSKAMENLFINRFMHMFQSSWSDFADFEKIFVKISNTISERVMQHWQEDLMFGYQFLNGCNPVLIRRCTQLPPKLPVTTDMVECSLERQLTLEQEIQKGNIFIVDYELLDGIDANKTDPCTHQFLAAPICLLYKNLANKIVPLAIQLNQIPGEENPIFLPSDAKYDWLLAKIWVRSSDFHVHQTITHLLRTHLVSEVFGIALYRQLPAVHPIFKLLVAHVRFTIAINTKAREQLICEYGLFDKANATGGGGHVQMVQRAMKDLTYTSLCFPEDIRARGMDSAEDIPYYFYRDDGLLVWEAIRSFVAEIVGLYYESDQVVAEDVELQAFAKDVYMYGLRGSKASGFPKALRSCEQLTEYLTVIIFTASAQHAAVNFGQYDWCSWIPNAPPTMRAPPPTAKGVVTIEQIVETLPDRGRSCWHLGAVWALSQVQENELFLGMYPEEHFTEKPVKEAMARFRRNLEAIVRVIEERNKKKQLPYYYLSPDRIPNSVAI
Procedure: 5-Lipoxygenase Inhibitory Action
Into 5 μl of a solution of the test compound in dimethylsulfoxide, 750 μl of a 1/15M phosphate buffer (pH 7.4) which was prepared by dissolving a wrapper of phosphate buffer powder (Yatron) in 10 ml of water, 40 μl of a 30 mM aqueous calcium chloride solution, 50 μl of a 20 mM aqueous GSH (glutathione, reduced form) solution, 50 μl of a 40 mM aqueous ATP (adenosine-5-triphosphate) solution and 100 μl of guinea pig polymorphonuclear leukocyte enzyme were added, followed by stirring at 25° C. for 5 minutes. To initiate the reaction, 5 μl of […] (10 mg/ml ethanol) were added to said mixture and the mixture was stirred at 25° C. for 5 minutes. 50 μl of 2N hydrochloric acid were added to the reaction mixture to terminate the reaction. 2.0 ml of ethyl acetate containing an internal standard substance (internal standard substance: 2 μg/ml of isoamyl paraben) were then added to the reaction mixture. The resulting mixture was extracted for 1 minute by a mixer, followed by centrifugal separation at 3000 rpm for 5 minutes. The ethyl acetate layer was separated, evaporated to dryness under reduced pressure and then dissolved in 200 μl of acetonitrile. By high-performance liquid chromatography, the amount of 5-HETE formed was determined. From the determination of 5-HETE of the control without the test compounds and that of the test compounds, an inhibition rate (%) was found and the 50% inhibition concentration of the test compounds against 5-lipoxygenase was determined.

[1] = system: lipid peroxide production, rat hepatic microsome; test: Anti-lipid-peroxide action: inhibition of lipid peroxide production in rat hepatic microsome; format: biochemical; conditions: Wister rat hepatic microsome, ferrous sulfate/cysteine, 37° C. 30 minutes, thiobarbituric acid absorbance 535 nm
Procedure: Anti-lipid-peroxide Action
The inhibitory effect of the invention compound against the production of lipid peroxide was conducted using rat hepatic microsome.
To 400 μl of a 1:2 mixture of a buffer [a 0.1M aqueous tris(hydroxymethyl)aminomethane solution adjusted to pH 7.4 by hydrochloric acid] and a 0.15M aqueous potassium chloride solution were added 5 μl of a solution of a predetermined concentration of the test compound in dimethyl sulfoxide, and 100 μl of hepatic microsome prepared from Wister rat (10 week old), followed by stirring at 37° C. for 5 minutes. To initiate the reaction of said mixture, 10 μl of a 1:1 mixed solution of a 0.5 mM aqueous solution of ferrous sulfate 7 hydrate and a 50 mM aqueous cysteine solution was added and the resulting mixture was stirred at 37° C. for 30 minutes. 1 ml of a 10% aqueous solution of trichloroacetic acid was added to the reaction mixture to terminate the reaction. The reaction mixture was centrifuged at 3000 rpm at 5° C. for 10 minutes and the supernatant was separated. To 1.0 ml of the supernatant, 1.0 ml of 50% aqueous acetic acid containing 0.67% of thiobarbituric acid was added and the mixture was boiled at 100° C. for 15 minutes. After the resulting mixture was allowed to stand at room temperature for 15 minutes, the absorbance at the wavelength of 535 nm was measured. From the absorbance of the control measured without the test compound and that of the test compounds of a predetermined concentration, an inhibition rate (%) was determined and the 50% inhibition concentration of the test compound against lipid peroxide was determined.

[2] = system: KK mice which developed diabetes; test: Hypoglycemic action in diabetic KK mice; format: in vivo; conditions: powdery food containing 0.01% test compound for three days, plasma glucose vs control; for inhibition in vivo at 0.01 % in diet: Mus musculus, po, 72 h, read-out: Blood sugar lowering rate (%)
Procedure: The blood sample was collected from the caudal vein of each of KK mice (4-5 month old) which developed diabetes and its blood sugar level was measured. The mice were then classified into groups (4 mice per group) so that they would be equal in the average of the blood sugar levels of the mice. For three days, powdery food (F-1, produced by Funabashi Farm) adjusted to contain the test compound in an amount of 0.01% was administered to mice. The mouse group to which the test compound was administered refers to “the medicine administered group”, while that to which the powdery food free of the test compound was administered refers to “the control”. After three days, the blood sample was collected from the caudal vein of each of the mice and the glucose concentration in the plasma obtained by centrifugal separation was measured by a glucose analyzer (“Glucoroder”, A&T Inc.). The blood-sugar lowering rate was calculated from the following equation:
Blood sugar lowering rate (%)=(average blood sugar level of the control−average blood sugar level of the medicine administered group)×100/the blood sugar level of the control

IC50 (50% inhibition concentration against lipid peroxide) [1] | Compound | inhibition in vivo at 0.01 % in diet [2] | also measured
– | Cc1cc(O)ccc1Oc1ccc2nc(COc3ccc(CC4SC(=O)NC4=O)cc3)n(C)c2c1.Cl (stereo not shown) | – | melting point: 165 to 168 °C
0.97 µg/mL (≈ 1.87 µM) | Cc1cc(Oc2ccc3nc(COc4ccc(CC5SC(=O)NC5=O)cc4)n(C)c3n2)c(C)c(C)c1O (stereo not shown) [Example 1-2a, 5-{4-[5-(4-Hydroxy-2,3,5-trimethylphenoxy)-3-methyl-3H-imidazo[4,5-b]pyridin-2-ylmethoxy]benzyl}thiazolidine-2,4-dione] | – | IC50 (5-lipoxygenase): 1140 nM
– | Cc1cc(Oc2ccc3nc(COc4ccc(CC5SC(=O)NC5=O)cc4)n(C)c3n2)c(C)c(C)c1O (stereo not shown) [Example 1-2b, 5-{4-[5-(4-Hydroxy-2,3,5-trimethylphenoxy)-3-methyl-3H-imidazo[4,5-b]pyridin-2-ylmethoxy]benzyl}thiazolidine-2,4-dione hydrochloride] | 48.1% | –
0.54 µg/mL (≈ 1.04 µM) | Cc1cc(Oc2ccc3nc(COc4ccc(CC5SC(=O)NC5=O)cc4)n(C)c3c2)c(C)c(C)c1O (stereo not shown) [Example 2-2a, 5-{4-[6-(4-Hydroxy-2,3,5-trimethylphenoxy)-1-methyl-1H-benzimidazol-2-ylmethoxy]benzyl}thiazolidine-2,4-dione] | – | IC50 (5-lipoxygenase): 193 nM
– | Cc1cc(Oc2ccc3nc(COc4ccc(CC5SC(=O)NC5=O)cc4)n(C)c3c2)c(C)c(C)c1O (stereo not shown) [Example 2-2b, 5-{4-[6-(4-Hydroxy-2,3,5-trimethylphenoxy)-1-methyl-1H-benzimidazol-2-ylmethoxy]benzyl}thiazolidine-2,4-dione hydrochloride] | 49.2% | –
– | Cn1c(COc2ccc(CC3SC(=O)NC3=O)cc2)nc2ccc(Oc3ccc(O)cc3)cc21 (stereo not shown) [Example 3-2, 5-{4-[6-(4-Hydroxyphenoxy)-1-methyl-1H-benzimidazol-2-ylmethoxy]benzyl}thiazolidine-2,4-dione] | 60.1% | –
0.83 µg/mL (≈ 1.65 µM) | Cc1cc(Oc2ccc3nc(COc4ccc(CC5SC(=O)NC5=O)cc4)n(C)c3c2)cc(C)c1O (stereo not shown) [Example 4-2a, 5-{4-[6-(4-Hydroxy-3,5-dimethylphenoxy)-1-methyl-1H-benzimidazol-2-ylmethoxy]benzyl}thiazolidine-2,4-dione] | 67.5% | IC50 (5-lipoxygenase): 397 nM
1.3 µg/mL | Cc1cc(Oc2ccc3nc(COc4ccc(CC5SC(=O)NC5=O)cc4)n(C)c3c2)c(Cl)c(C)c1O.Cl (stereo not shown) [Example 5b, 5-{4-[6-(2-Chloro-4-hydroxy-3,5-dimethylphenoxy)-1-methyl-1H-benzimidazol-2-ylmethoxy]benzyl}thiazolidine-2,4-dione hydrochloride] | – | IC50 (5-lipoxygenase): 923 nM
– | Cn1c(COc2ccc(CC3SC(=O)NC3=O)cc2)nc2ccc(Oc3ccccn3)cc21 (stereo not shown) [Example 6-2, 5-{4-[6-(Pyridin-2-yloxy)-1-methyl-1H-benzimidazol-2-ylmethoxy]benzyl}thiazolidine-2,4-dione] | 62.6% | –
0.65 µg/mL | Cl.Cn1c(COc2ccc(CC3SC(=O)NC3=O)cc2)nc2ccc(Sc3cc(C(C)(C)C)c(O)c(C(C)(C)C)c3)cc21.Cn1c(COc2ccc(CC3SC(=O)NC3=O)cc2)nc2ccc(Sc3cc(C(C)(C)C)c(O)c(C(C)(C)C)c3)cc21 (stereo not shown) [Example 7-2a, 5-{4-[6-(3,5-Di-t-butyl-4-hydroxyphenylthio)-1-methyl-1H-benzimidazol-2-ylmethoxy]benzyl}thiazolidine-2,4-dione 1/2 hydrochloride] | – | Blood sugar lowering rate (%) [2]: 71.7%
3.2 µg/mL | Cc1cc(Oc2ccc3nc(COc4ccc(CC5SC(=O)NC5=O)cc4)n(C)c3c2)cc(C)c1N.Cl.Cl (stereo not shown) [Example 8-2b, 5-{4-[6-(4-Amino-3,5-dimethylphenoxy)-1-methyl-1H-benzimidazol-2-ylmethoxy]benzyl}thiazolidine-2,4-dione dihydrochloride] | – | –
– | Cn1c(COc2ccc(CC3SC(=O)NC3=O)cc2)nc2ccc(Sc3ccccn3)cc21 (stereo not shown) [Example 13-2b, 5-{4-[1-Methyl-6-(pyridin-2-ylthio)-1H-benzimidazole-2-ylmethoxy]benzyl}thiazolidine-2,4-dione dihydrochloride] | 68.1% | –
– | Cn1c(COc2ccc(CC3SC(=O)NC3=O)cc2)nc2ccc(Oc3ccc(-n4ccnc4)cc3)cc21 (stereo not shown) [Example 19-2, 5-{4-(6-[4-(Imidazole-1-yl)phenoxy]-1-methyl-1H-benzimidazole-2-ylmethoxy)benzyl}thiazolidine-2,4-dione dihydrochloride] | 66.8% | –
– | Cc1ccc(Sc2ccc3nc(COc4ccc(CC5SC(=O)NC5=O)cc4)n(C)c3c2)cc1 (stereo not shown) [Example 34-2b, 5-{4-[1-Methyl-6-(4-methylthiophenoxy)-1H-benzimidazole-2-ylmethoxy]benzyl}thiazolidine-2,4-dione hydrochloride] | 71.2% | –
– | Cn1c(COc2ccc(CC3SC(=O)NC3=O)cc2)nc2ccc(Oc3ccc(C#N)cc3)cc21 (stereo not shown) [Example 40, 5-{4-[6-(4-Cyanophenoxy)-1-methyl-1H-benzimidazole-2-ylmethoxy]benzyl}thiazolidine-2,4-dione hydrochloride] | 66.4% | –
– | Cn1c(COc2ccc(CC3SC(=O)NC3=O)cc2)nc2ccc(Oc3ccc(NC(=O)c4cccnc4)cc3)cc21 (stereo not shown) [Example 51, 5-{4-[6-(4-Nicotinoylaminophenoxy)-1-methyl-1H-benzimidazole-2-ylmethoxy]benzyl}thiazolidine-2,4-dione] | 63.6% | –
